This passage reports inhibition results from patent US20100055071A1, “Anti-Viral Compounds” (priority 2006, published 2010).

The subject of this assay is HCV replication in ET (Huh-lucubineo-ET) cell line. Kind of assay: Replicon Assay (HCV replicon luciferase, ET cell line). The conditions noted are these: Hepatitis C virus; tested at 10 μM; ET (Huh-lucubineo-ET) replicon cells; luciferase activity measured 48-72 hours later; relative to no compound control. In kind it is cell-based. How it is done:
A cell line, ET (Huh-lucubineo-ET) was used for screening of compounds of the present invention for inhibiting HCV replication. The ET cell line was stably transfected with RNA transcripts harboring a I389luc-ubi-neo/NS3-3′/ET; replicon with firefly luciferase-ubiquitin-neomycin phosphotransferase fusion protein and EMCV-IRES driven NS3-5B polyprotein containing the cell culture adaptive mutations (E1202G; T1280I; K1846T) (Krieger at al, 2001 and unpublished). The ET cells were grown in DMEM (Dulbeco's Modified Eagle's Medium), supplemented with 10% fetal calf serum, 2 mM Glutamine, Penicillin (100 IU/mL)/Streptomycin (100 μg/mL), 1× nonessential amino acids, and 250 μg/mL G418 (“Geneticin”). They were all available through Life Technologies (Bethesda, Md.). The cells were plated at 0.5-1.0×10^4 cells/well in the 96 well plates and incubated for 24 hrs before adding testing compounds. Then the compounds were added to the cells to achieve a final concentration of 0.1 nM to 50 μM and a final DMSO concentration of 0.5%. Luciferase activity were measured 48-72 hours later by adding a lysis buffer and the substrate (Catalog number Glo-lysis buffer E2661 and Bright-Glo luciferase system E2620 Promega, Madison, Wis.). Cells should not be too confluent during the assay. Percent inhibition of replication was plotted relative to no compound control. Under the same condition, cytotoxicity of the compounds was determined using cell proliferation reagent, WST-1 (Roche, Germany). The compounds showing antiviral activities, but no significant cytotoxicities were chosen to determine EC50 and TC50. For these determinations, a 10 point 2-fold serial dilution for each compound was used, which spans a concentration range of 1000 fold. EC50 and similarly TC50 values were calculated by fitting % inhibition at each concentration to the following equation:
% inhibition=100%/[(IC50/[I])^b+1]
where b is Hill's coefficient.
In some preferred embodiments compounds of Formula I will have a % inhibition of at least 20% when tested at 10 μM. In other embodiments the compounds of Formula I will have a % inhibition of at least 50% when tested at 10 μM.
For orientation: A replicon is a self-replicating genome or part of one, used to study replication in cells.

A word on the inhibition: it is the drop in the measured response relative to a control, in per cent. Higher therefore signals a response far below the control. For the molecule `O=C(NC1CC1)c1ccc(-c2ccc3[nH]c([C@@H]4CSC(c5ccncc5)N4C(=O)OCc4ccccc4)nc3c2)cc1` (stereo in doubt) [Compound 4006, (S)-4-[5-(4-Cyclopropylcarbamoyl-phenyl)-1H-benzoimidazol-2-yl]-2-pyridin-4-yl-thiazolidine-3-carboxylic acid benzyl ester], the inhibition at 10 µM amounted to 99.8%.
With `O=C(Nc1cccc(-c2ccc([C@@H]3CCCN3C(=O)OCc3ccccc3)cc2)c1)C1CC1` (stereo in doubt) [Compound 4009, 2-[3′-(Cyclopropanecarbonyl-amino)-biphenyl-4-yl]-pyrrolidine-1-carboxylic acid benzyl ester], the inhibition at 10 µM was found to be 31.7%.
To `O=C(Nc1ccc(-c2ccc([C@@H]3CCCN3C(=O)OCc3ccccc3)cc2)cc1)C1CC1` (stereo in doubt) [Compound 4026, 2-[4′-(Cyclopropanecarbonyl-amino)-biphenyl-4-yl]-pyrrolidine-1-carboxylic acid benzyl ester] belongs 47.6%.
As for `O=C(NC1CC1)c1ccc(-c2ccc3nc([C@@H]4Cc5ccccc5N4C(=O)OCc4ccccc4)[nH]c3c2)cc1` [Compound 4010, (S)-2-[6-(4-Cyclopropylcarbamoyl-phenyl)-1H-benzoimidazol-2-yl]-2,3-dihydro-indole-1-carboxylic acid benzyl ester], the inhibition at 10 µM turned out to be 96.8%.
For `O=C(NCc1ccc(-c2ccc3nc([C@@H]4CCCN4C(=O)OCc4ccccc4)[nH]c3c2)cc1)C1CC1` [Compound 4038, (S)-2-(6-{4-[(Cyclopropanecarbonyl-amino)-methyl]-phenyl}-1H-benzoimidazol-2-yl)-pyrrolidine-1-carboxylic acid benzyl ester], testing at 10 µM gave an inhibition of 97%.
`O=C(Nc1ccc(-c2ccc3nc([C@@H]4CCCN4C(=O)OCc4ccccc4)[nH]c3c2)cc1)C1CC1` [Compound 4058, (S)-2-{6-[4-(Cyclopropanecarbonyl-amino)-phenyl]-1H-benzoimidazol-2-yl}-pyrrolidine-1-carboxylic acid benzyl ester] showed an inhibition at 10 µM of 97.9%.
